# Measured values taken from patent publication US20230293578A1, “TREATMENT OF BACTERIAL VAGINOSIS” (priority 2020, published 2023).
# Test system: G. vag strain 14.2
# Test: antibiotic synergy testing, checkerboard cross dilution method in broth cultures
# Type: cell-based, Gardnerella vaginalis
# Conditions: Gardnerella vaginalis, 14.2; 32 mg/mL clindamycin, 24 hr; read-out: growth inhibited
structure (smiles),measurement,value
"CCC[C@@H]1C[C@@H](C(=O)N[C@@H]([C@H]2O[C@H](SC)[C@H](O)[C@@H](O)[C@H]2O)[C@H](C)Cl)N(C)C1 [clindamycin, reference compound]",inhibition at 32000 µg/mL,27.4%
